From ChEMBL document CHEMBL5465560, “Selectivity Literature for EUbOPEN Chemogenomic Library” (2024)

Key:
[1] = biological target: T1, Phosphatidylinositol 4,5-bisphosphate 3-kinase catalytic subunit delta isoform (Homo sapiens) (UniProt O00329); assay: Selectivity interaction (KinomeScan (DiscoverX)) EUB0000877a PIK3CD; conditions: at 10 µM
T1 sequence (whole entry): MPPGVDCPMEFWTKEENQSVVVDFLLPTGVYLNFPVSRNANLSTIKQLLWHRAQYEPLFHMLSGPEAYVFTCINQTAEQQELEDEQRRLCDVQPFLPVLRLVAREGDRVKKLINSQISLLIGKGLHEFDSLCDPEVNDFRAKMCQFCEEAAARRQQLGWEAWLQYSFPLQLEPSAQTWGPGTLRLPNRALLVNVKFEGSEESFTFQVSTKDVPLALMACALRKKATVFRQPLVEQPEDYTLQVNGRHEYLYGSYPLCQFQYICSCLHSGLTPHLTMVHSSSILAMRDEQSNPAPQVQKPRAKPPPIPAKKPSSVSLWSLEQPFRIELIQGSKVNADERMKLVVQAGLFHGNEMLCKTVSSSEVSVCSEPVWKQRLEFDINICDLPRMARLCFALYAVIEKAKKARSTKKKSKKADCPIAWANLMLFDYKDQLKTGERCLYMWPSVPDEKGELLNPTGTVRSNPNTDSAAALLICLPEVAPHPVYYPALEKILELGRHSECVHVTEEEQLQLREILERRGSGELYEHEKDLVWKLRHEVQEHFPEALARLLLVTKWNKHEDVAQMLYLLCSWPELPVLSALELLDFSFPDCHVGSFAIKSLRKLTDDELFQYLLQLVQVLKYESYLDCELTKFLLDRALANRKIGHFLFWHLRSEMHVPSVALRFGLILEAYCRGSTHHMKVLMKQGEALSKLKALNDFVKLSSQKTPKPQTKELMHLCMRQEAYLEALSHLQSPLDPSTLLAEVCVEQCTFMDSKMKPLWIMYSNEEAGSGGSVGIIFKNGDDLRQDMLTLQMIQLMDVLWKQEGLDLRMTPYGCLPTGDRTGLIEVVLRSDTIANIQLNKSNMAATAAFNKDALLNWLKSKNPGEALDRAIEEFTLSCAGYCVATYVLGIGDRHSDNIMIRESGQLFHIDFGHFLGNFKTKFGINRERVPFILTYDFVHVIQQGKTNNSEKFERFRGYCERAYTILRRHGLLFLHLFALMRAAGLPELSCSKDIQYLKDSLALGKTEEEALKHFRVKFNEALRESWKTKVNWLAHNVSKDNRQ

[2] = biological target: Tyrosine-protein kinase ITK/TSK (Homo sapiens, UniProt Q08881); assay: Selectivity interaction (Enyzmatic assay) EUB0000601a ITK
[3] = biological target: T2, Serine/threonine-protein kinase ICK (Homo sapiens) (UniProt Q9UPZ9); conditions: at 10 µM
T2 sequence (whole entry): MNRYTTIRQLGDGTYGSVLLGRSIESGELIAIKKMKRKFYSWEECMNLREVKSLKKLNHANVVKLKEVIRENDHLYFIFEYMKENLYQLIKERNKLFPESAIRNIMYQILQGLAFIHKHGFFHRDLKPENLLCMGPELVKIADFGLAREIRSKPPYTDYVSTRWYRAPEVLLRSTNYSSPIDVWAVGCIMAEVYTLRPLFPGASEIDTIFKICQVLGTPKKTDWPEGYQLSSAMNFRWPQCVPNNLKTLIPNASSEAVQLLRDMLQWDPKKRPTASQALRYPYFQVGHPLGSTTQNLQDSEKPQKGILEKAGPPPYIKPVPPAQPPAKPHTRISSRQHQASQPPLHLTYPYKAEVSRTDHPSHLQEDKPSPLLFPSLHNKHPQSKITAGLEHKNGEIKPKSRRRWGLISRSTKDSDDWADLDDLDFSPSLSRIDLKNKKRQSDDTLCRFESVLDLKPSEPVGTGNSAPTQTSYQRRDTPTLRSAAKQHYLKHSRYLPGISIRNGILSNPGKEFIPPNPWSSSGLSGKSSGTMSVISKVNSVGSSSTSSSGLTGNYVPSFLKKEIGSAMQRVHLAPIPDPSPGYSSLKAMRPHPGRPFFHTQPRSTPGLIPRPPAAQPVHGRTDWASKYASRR

[4] = biological target: Mitogen-activated protein kinase 8 (Homo sapiens, UniProt P45983); assay: Selectivity interaction (Kinase panel (Invitrogen)) EUB0000639a MAPK8; conditions: at 200 nM
[5] = biological target: Serine/threonine-protein kinase B-raf (Homo sapiens) (UniProt P15056); assay: (§1) Selectivity interaction (KinomeScan (DiscoverX)) EUB0001619a BRAF; conditions: at 1 µM
[6] = tested on: Serine/threonine-protein kinase B-raf (Homo sapiens), P15056 [V600E]; assay: as §1; conditions: at 1 µM
[7] = biological target: T3, Ribosomal protein S6 kinase delta-1 (Homo sapiens) (UniProt Q96S38); assay: Selectivity interaction (ActivX KiNativ screen (ex vivo kinase selectivity in human PBMCs)) EUB0001619a RPS6KC1; assay type: cell-based; conditions: PBMC, at 1 µM
T3 sequence (whole entry): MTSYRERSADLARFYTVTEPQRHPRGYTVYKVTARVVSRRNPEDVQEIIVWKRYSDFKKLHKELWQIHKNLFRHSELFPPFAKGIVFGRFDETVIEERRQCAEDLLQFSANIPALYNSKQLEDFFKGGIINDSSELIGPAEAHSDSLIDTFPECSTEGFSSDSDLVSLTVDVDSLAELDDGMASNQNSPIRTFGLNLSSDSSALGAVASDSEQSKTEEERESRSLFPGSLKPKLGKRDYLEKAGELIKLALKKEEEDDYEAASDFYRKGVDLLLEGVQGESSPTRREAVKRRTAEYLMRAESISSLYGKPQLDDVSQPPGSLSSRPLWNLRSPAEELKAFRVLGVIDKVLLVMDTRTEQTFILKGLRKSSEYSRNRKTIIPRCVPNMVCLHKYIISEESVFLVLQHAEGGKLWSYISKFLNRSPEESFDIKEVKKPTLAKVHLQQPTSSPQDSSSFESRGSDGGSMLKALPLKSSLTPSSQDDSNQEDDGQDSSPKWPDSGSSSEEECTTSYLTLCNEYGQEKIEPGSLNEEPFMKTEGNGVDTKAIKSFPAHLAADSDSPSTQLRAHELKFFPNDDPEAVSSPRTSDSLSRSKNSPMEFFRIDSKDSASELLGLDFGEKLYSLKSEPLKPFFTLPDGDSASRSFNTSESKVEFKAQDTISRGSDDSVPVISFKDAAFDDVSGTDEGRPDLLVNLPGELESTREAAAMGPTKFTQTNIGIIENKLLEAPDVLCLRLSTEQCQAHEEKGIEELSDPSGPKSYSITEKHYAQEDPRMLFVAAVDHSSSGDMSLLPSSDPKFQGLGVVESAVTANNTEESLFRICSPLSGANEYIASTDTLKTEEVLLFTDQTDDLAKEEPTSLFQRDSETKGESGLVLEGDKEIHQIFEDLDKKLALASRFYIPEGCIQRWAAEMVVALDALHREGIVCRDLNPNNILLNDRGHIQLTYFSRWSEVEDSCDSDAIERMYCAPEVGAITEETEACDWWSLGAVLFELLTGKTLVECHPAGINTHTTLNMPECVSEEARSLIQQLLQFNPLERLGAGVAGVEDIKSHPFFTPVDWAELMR

Sequence of Mitogen-activated protein kinase 8 (P45983 whole entry): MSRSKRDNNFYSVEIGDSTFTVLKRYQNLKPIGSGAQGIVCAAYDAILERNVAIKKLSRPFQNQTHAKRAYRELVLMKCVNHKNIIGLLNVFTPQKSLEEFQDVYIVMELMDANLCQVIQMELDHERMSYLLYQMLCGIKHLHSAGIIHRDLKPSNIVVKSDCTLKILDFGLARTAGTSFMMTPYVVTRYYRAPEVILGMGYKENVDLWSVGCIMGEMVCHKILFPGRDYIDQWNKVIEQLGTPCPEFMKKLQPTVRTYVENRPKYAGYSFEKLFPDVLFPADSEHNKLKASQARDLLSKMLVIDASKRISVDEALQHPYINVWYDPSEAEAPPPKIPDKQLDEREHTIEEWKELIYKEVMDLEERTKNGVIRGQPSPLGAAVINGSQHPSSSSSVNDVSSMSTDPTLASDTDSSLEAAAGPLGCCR
Sequence of Serine/threonine-protein kinase B-raf (Homo sapiens) (P15056 whole entry): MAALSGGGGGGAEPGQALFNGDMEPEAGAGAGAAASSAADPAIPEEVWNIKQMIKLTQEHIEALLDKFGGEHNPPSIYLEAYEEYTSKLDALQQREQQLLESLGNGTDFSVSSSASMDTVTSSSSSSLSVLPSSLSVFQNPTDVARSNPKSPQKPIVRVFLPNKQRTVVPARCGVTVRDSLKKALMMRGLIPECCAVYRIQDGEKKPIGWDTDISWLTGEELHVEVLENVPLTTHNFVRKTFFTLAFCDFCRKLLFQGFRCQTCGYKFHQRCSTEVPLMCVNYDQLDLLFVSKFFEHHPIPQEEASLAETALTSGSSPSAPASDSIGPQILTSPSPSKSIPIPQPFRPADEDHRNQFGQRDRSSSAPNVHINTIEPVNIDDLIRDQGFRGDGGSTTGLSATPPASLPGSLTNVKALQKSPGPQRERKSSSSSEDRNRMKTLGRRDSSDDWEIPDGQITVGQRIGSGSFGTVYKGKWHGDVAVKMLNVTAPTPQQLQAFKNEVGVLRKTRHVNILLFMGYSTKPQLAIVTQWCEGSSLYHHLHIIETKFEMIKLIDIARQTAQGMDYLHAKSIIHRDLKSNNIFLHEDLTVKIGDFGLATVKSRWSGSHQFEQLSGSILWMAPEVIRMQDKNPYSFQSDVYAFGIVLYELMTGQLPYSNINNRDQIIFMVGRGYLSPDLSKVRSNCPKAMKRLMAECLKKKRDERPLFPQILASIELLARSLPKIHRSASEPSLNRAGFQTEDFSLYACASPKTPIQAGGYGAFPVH
Sequence of Serine/threonine-protein kinase B-raf (Homo sapiens), P15056 [V600E] (P15056 whole entry V600E): as the sequence (P15056 whole entry) above, with V600E counted along it
Sequence of Tyrosine-protein kinase ITK/TSK (Q08881 whole entry): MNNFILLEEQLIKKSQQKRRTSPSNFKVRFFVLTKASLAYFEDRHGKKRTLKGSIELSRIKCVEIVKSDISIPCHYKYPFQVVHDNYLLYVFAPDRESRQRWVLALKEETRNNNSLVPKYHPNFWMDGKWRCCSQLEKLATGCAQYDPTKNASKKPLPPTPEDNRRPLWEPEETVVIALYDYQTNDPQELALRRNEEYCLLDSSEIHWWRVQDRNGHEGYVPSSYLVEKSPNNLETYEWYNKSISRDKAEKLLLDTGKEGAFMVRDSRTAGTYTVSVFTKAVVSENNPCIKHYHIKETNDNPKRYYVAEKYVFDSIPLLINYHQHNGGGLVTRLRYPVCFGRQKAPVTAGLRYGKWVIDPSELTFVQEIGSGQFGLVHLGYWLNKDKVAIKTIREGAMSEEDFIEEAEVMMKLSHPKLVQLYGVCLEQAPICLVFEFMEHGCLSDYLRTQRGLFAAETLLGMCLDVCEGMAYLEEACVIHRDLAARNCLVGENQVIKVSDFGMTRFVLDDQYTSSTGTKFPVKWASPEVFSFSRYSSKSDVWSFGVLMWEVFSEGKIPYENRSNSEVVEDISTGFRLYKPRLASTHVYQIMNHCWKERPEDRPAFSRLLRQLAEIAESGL

CCC(=O)N1CC[C@H](Nc2ncnc3c2CN(c2cnc(OC)c(C(F)(F)F)c2)CC3)C1 [LENIOLISIB] gave a % of inhibition [1] of 100%.

CCc1cc(Nc2nccc(-c3c(-c4ccc(OC)c(C(=O)Nc5c(F)cccc5F)c4)nc4ccccn34)n2)c(OC)cc1N1CCC(N2CCN(S(C)(=O)=O)CC2)CC1 gave an IC50 [2] greater than 25 µM.

In the case of Cc1cc([C@@H](C)Nc2ccccc2C(=O)O)c2nc(N3CCOCC3)cc(=O)n2c1 [AZD-6482], the % of control [3] is reported as 100%.

Molecule CC[C@@H]1[C@H](F)C(=O)N[C@@H]1COc1nccc2cc(C(N)=O)c(OC)cc12 [ZIMLOVISERTIB] has a % of inhibition [4] of -0.665%.

N#Cc1cccc(-c2c[nH]c3ncnc(N4CCOCC4)c23)c1 was tested, and the % of control [5] was 80%, the % of control [6] was 69% and the % of inhibition [7] was -2%.
